Results on eleven compounds are retold here after patent US20250154171A1, “RAS INHIBITORS” (Revolution Medicines, Inc., priority 2023, published 2025).

For orientation: pIC50 means the negative decadic logarithm of the IC50, by convention in mol/L.

pIC50: −log10 of the molar value. Where two headings read alike, the source gives them in different places.

One data set relates to K-RasG12V (Capan-1). The experiment in a line: Potency assay: cellular pERK (AlphaLISA SureFire or In-Cell Western), Capan-1. In kind it is cell-based. Conditions: Homo sapiens; Capan-1 cells; 4 hours; in at least one of the assays (AlphaLISA or In-Cell Western); read-out: pERK IC50 with respect to K-RasG12V (Capan-1). From the text:
The purpose of this assay is to measure the ability of test compounds to inhibit K-Ras in cells. Activated K-Ras induces increased phosphorylation of ERK at Threonine 202 and Tyrosine 204 (PERK). This procedure measures a decrease in cellular pERK in response to test compounds. The procedure described below in Capan-1 cells is applicable to K-RasG12V.
Note: This protocol may be executed substituting other cell lines to characterize inhibitors of other RAS variants, including, for example, NCI-H358 (K-Ras G12C), AsPC-1 (K-Ras G12D), Capan-1 (K-Ras G12V), or NCI-H1355 (K-Ras G13C).
Cells are grown and maintained using media and procedures recommended by the ATCC. On the day prior to compound addition, cells are plated in 384-well cell culture plates (40 μl/well) and grown overnight in a 37° C., 5% CO2 incubator. Test compounds are prepared in 10, 3-fold dilutions in DMSO, with a high concentration of 10 mM. On the day of assay, 40 nL of test compound is added to each well of cell culture plate using an Echo550 liquid handler (LabCyte®). Concentrations of test compound are tested in duplicate. After compound addition, cells are incubated 4 hours at 37° C., 5% CO2. Following incubation, culture medium is removed, and cells are washed once with phosphate buffered saline.
In some experiments, cellular pERK level is determined using the AlphaLISA SureFire Ultra p-ERK1/2 Assay Kit (PerkinElmer). Cells are lysed in 25 μL lysis buffer, with shaking at 600 RPM at room temperature. Lysate (10 μL) is transferred to a 384-well Opti-plate (PerkinElmer) and 5 μL acceptor mix is added. After a 2-hour incubation in the dark, 5 μL donor mix is added, plate is sealed, and incubated 2 hours at room temperature. Signal is read on an Envision plate reader (PerkinElmer) using standard AlphaLISA settings. Analysis of raw data is carried out in Excel (Microsoft) and Prism (GraphPad). Signal is plotted vs. the decadal logarithm of compound concentration, and IC50 is determined by fitting a 4-parameter sigmoidal concentration response model.
In other experiments, cellular pERK is determined by In-Cell Western. Following compound treatment, cells are washed twice with 200 μL tris buffered saline (TBS) and fixed for 15 minutes with 150 μL 4% paraformaldehyde in TBS. Fixed cells are washed 4 times for 5 minutes with TBS containing 0.1% Triton X-100 (TBST) and then blocked with 100 μL Odyssey blocking buffer (LI-COR) for 60 minutes at room temperature. Primary antibody (PERK, CST-4370, Cell Signaling Technology) is diluted 1:200 in blocking buffer, and 50 μL is added to each well and incubated overnight at 4° C. Cells are washed 4 times for 5 minutes with TBST. Secondary antibody (IR-800CW rabbit, LI-COR, diluted 1:800) and DNA stain DRAQ5 (LI-COR, diluted 1:2000) are added and incubated 1-2 hours at room temperature. Cells are washed 4 times for 5 minutes with TBST. Plates are scanned on a Li—COR Odyssey CLx Imager. Analysis of raw data is carried out in Excel (Microsoft) and Prism (GraphPad). Signal is plotted vs. the decadal logarithm of compound concentration, and IC50 is determined by fitting a 4-parameter sigmoidal concentration response model.
On the technique in general: Alpha assays give light when donor and acceptor beads are brought close together.

For data set [1] the following is noted: ester bond, 18-membered ring, PyBOP/HOBt/DIEA.

For the compound `CO[C@@H](C)c1ncccc1-c1c2c3cc(ccc3n1[C@H]1C[C@@H](C#N)C1)-c1coc(n1)[C@@H](OCc1ccccn1)[C@H](NC(=O)[C@H]1[C@H](C)[C@@H]1C)C(=O)N1N[C@H](C(=O)OCC(C)(C)C2)C2CC1C2` [Example A1174], the pIC50 in the data set on K-RasG12V (Capan-1) was above 6.19.

For the compound `COC1CN([C@@H]2c3nc(cs3)-c3ccc4c(c3)c(c(-c3cccnc3[C@H](C)OC)n4C3CN(C4CC4)C3)CC(C)(C)COC(=O)[C@@H]3CCCN(N3)C(=O)[C@H]2NC(=O)OC(C)(C)C)C1`, the ring closure, yield after HPLC in data set [1] (from COC1CN([C@H](c2nc(-c3ccc4c(c3)c(CC(C)(C)CO)c(-c3cccnc3[C@H](C)OC)n4C3CN(C4CC4)C3)cs2)[C@H](NC(=O)OC(C)(C)C)C(=O)N2CCC[C@@H](C(=O)O)N2)C1, DMF, 11.2 mM, 25.0 °C, 5.0 h) came out at 40.2%.

Regarding `CO[C@@H](C)c1ncccc1-c1c2c3cc(ccc3n1C1CN(C3CC3)C1)-c1csc(n1)[C@@H](N1CC3(CCN3C3COC3)C1)[C@H](NC(=O)[C@@H]1[C@@H](C)[C@H]1c1ccncn1)C(=O)N1CCC[C@H](N1)C(=O)OCC(C)(C)C2` (atropisomer, axis not shown) [Example A1076], in the data set with K-RasG12V (Capan-1), the pIC50 was above 6.19.

Compound `CO[C@@H](C)c1ncc(C2CN(C3CC3)C2)cc1-c1c2c3cc(ccc3n1CCOC1CCOCC1)-c1csc(n1)[C@@H](N1CC3(COC3)C1)[C@H](NC(=O)[C@@H]1OC[C@@H]1C)C(=O)N1CCC[C@H](N1)C(=O)OCC(C)(C)C2` had a ring closure, yield after HPLC in data set [1] (from CO[C@@H](C)c1ncc(C2CN(C3CC3)C2)cc1-c1c(CC(C)(C)CO)c2cc(-c3csc([C@H]([C@H](NC(=O)[C@@H]4OC[C@@H]4C)C(=O)N4CCC[C@@H](C(=O)O)N4)N4CC5(COC5)C4)n3)ccc2n1CCOC1CCOCC1, MeCN, 1.44 mM, 35.0 °C, 3.0 h) of 20%.

Compound `CO[C@@H](C)c1ncccc1-c1c2c3cc(ccc3n1C1CC(C#N)C1)-c1coc(n1)[C@@H](N1CC3(COC3)C1)[C@H](NC(=O)OC(C)(C)C)C(=O)N1CCC[C@H](N1)C(=O)OCC(C)(C)C2` (some centres unmarked) returned a ring closure, yield after HPLC in data set [1] (from CO[C@@H](C)c1ncccc1-c1c(CC(C)(C)CO)c2cc(-c3coc([C@H]([C@H](NC(=O)OC(C)(C)C)C(=O)N4CCC[C@@H](C(=O)O)N4)N4CC5(COC5)C4)n3)ccc2n1C1CC(C#N)C1, DMF, 12.5 mM, 25.0 °C, 2.0 h) of 27.4%.

`CO[C@@H](C)c1ncccc1-c1c2c3cc(ccc3n1C1CN(C3CC3)C1)-c1coc(n1)[C@@H](N1CCN(C)CC1)[C@H](NC(=O)[C@@H]1[C@@H](C)[C@H]1c1ccncn1)C(=O)N1CCC[C@H](N1)C(=O)OCC(C)(C)C2` (atropisomer, axis not shown) [Example A1104]: in the data set with K-RasG12V (Capan-1), the pIC50 is above 6.19.

For `CO[C@@H](C)c1ncc(N2CCN(C3CC3)CC2)cc1-c1c2c3cc(ccc3n1CCOC1CCOCC1)-c1csc(n1)[C@@H](N1CC3(COC3)C1)[C@H](NC(=O)[C@@H]1[C@@H](C)[C@H]1C(=O)N1CCN(C)CC1)C(=O)N1CCC[C@H](N1)C(=O)OCC(C)(C)C2` (atropisomer, axis not shown) [Example A1083], the negative-log IC50 (pIC50) in the data set with K-RasG12V (Capan-1) is above 6.19.

For the compound `CO[C@@H](C)c1ncccc1-c1c2c3cc(ccc3n1C1CN(C3CC3)C1)-c1coc(n1)[C@@H](N1CC3(CCCN3C)C1)[C@H](NC(=O)[C@@H]1[C@@H](C)[C@H]1c1ccncn1)C(=O)N1CCC[C@H](N1)C(=O)OCC(C)(C)C2` (atropisomer, axis not shown) [Example A1086], in the data set with K-RasG12V (Capan-1), the pIC50 was above 6.19.

In the case of `CO[C@@H](C)c1ncccc1-c1c2c3cc(ccc3n1[C@H]1C[C@@H](C#N)C1)-c1csc(n1)[C@@H](N1CC3(CCCN3)C1)[C@H](NC(=O)[C@H]1[C@H](C)[C@@H]1C)C(=O)N1CCC[C@H](N1)C(=O)OCC(C)(C)C2` (atropisomer, axis not shown) [Example A1168], in the data set with K-RasG12V (Capan-1), the pIC50 is above 6.19.

In the case of `CO[C@@H](C)c1ncccc1-c1c2c3cc(ccc3n1C1CN(C3CC3)C1)-c1csc(n1)[C@@H](N1CC3(CCN3C)C1)[C@H](NC(=O)[C@H]1[C@H](C)[C@@H]1C)C(=O)N1CCC[C@H](N1)C(=O)OCC(C)(C)C2` (atropisomer, axis not shown) [Example A1191], the negative-log IC50 (pIC50) with K-RasG12V (Capan-1) was above 6.19.

Turning to `CO[C@@H](C)c1ncccc1-c1c2c3cc(ccc3n1[C@H]1C[C@@H](C#N)C1)-c1csc(n1)[C@@H](N1CC3(CCCN3C)C1)[C@H](NC(=O)[C@H]1[C@H](C)[C@@H]1C)C(=O)N1CCC[C@H](N1)C(=O)OCC(C)(C)C2` (atropisomer, axis not shown) [Example A983], the pIC50 in the data set with K-RasG12V (Capan-1) is above 6.19.
